In publication PMC9578392, “Safety, Tolerability, and Pharmacokinetics of the Novel Antiviral Agent Ensitrelvir Fumaric Acid, a SARS-CoV-2 3CL Protease Inhibitor, in Healthy Adults” (Antimicrobial Agents and Chemotherapy, 2022):

Experiments:
[1] = Blood lipid profiling, single-dose part (Supplementary Table 3); format: in vivo, human
SARS-CoV-2 = system: SARS-CoV-2; design: method as in PMID 35352927; conditions: BALB/cAJcl mice; cited from earlier work

Cn1cnc(Cn2c(=O)[nH]/c(=N\c3cc4cn(C)nc4cc3Cl)n(Cc3cc(F)c(F)cc3F)c2=O)n1 [Ensitrelvir, ensitrelvir fumaric acid]
Triglyceride, Mean (SD) ([1]; Cohort D 500 mg single dose, Day 2, baseline mean 0.7507): 1.2928 mmol/L | Cholesterol, Mean (SD) ([1]; Cohort D 500 mg single dose, Day 2, baseline mean 4.2838): 3.9005 mmol/L | HDL-C, Mean (SD) ([1]; Cohort D 500 mg single dose, Day 2, baseline mean 546.7): 330.0 mg/L | LDL-C, Mean (SD) ([1]; Cohort D 500 mg single dose, Day 2, baseline mean 990.0): 951.7 mg/L | Triglyceride, Mean (SD) ([1]; Cohort D 500 mg single dose, Day 4, baseline mean 0.7507): 1.1327 mmol/L | Cholesterol, Mean (SD) ([1]; Cohort D 500 mg single dose, Day 4, baseline mean 4.2838): 3.8273 mmol/L | HDL-C, Mean (SD) ([1]; Cohort D 500 mg single dose, Day 4, baseline mean 546.7): 340.0 (74.8) mg/L | LDL-C, Mean (SD) ([1]; Cohort D 500 mg single dose, Day 4, baseline mean 990.0): 950.0 mg/L | Triglyceride, Mean (SD) ([1]; Cohort D 500 mg single dose, Day 7/Early termination, baseline mean 0.7507): 0.9937 mmol/L | Cholesterol, Mean (SD) ([1]; Cohort D 500 mg single dose, Day 7/Early termination, baseline mean 4.2838): 3.8103 mmol/L | HDL-C, Mean (SD) ([1]; Cohort D 500 mg single dose, Day 7/Early termination, baseline mean 546.7): 421.7 (83.8) mg/L | LDL-C, Mean (SD) ([1]; Cohort D 500 mg single dose, Day 7/Early termination, baseline mean 990.0): 928.3 mg/L | Triglyceride, Mean (SD) ([1]; Cohort D 500 mg single dose, Follow up, baseline mean 0.7507): 0.5627 mmol/L | Cholesterol, Mean (SD) ([1]; Cohort D 500 mg single dose, Follow up, baseline mean 4.2838): 3.6505 mmol/L | HDL-C, Mean (SD) ([1]; Cohort D 500 mg single dose, Follow up, baseline mean 546.7): 450.0 (85.1) mg/L | LDL-C, Mean (SD) ([1]; Cohort D 500 mg single dose, Follow up, baseline mean 990.0): 843.3 mg/L | Triglyceride, Mean (SD) ([1]; Cohort E 1000 mg single dose, Day 2, baseline mean 1.0275): 2.3427 mmol/L | Cholesterol, Mean (SD) ([1]; Cohort E 1000 mg single dose, Day 2, baseline mean 4.1332): 3.5257 mmol/L | HDL-C, Mean (SD) ([1]; Cohort E 1000 mg single dose, Day 2, baseline mean 413.3): 166.7 (45.5) mg/L | LDL-C, Mean (SD) ([1]; Cohort E 1000 mg single dose, Day 2, baseline mean 986.7): 840.0 mg/L | Triglyceride, Mean (SD) ([1]; Cohort E 1000 mg single dose, Day 4, baseline mean 1.0275): 1.9683 mmol/L | Cholesterol, Mean (SD) ([1]; Cohort E 1000 mg single dose, Day 4, baseline mean 4.1332): 3.2498 mmol/L | HDL-C, Mean (SD) ([1]; Cohort E 1000 mg single dose, Day 4, baseline mean 413.3): 180.0 (52.5) mg/L | LDL-C, Mean (SD) ([1]; Cohort E 1000 mg single dose, Day 4, baseline mean 986.7): 800.0 mg/L | Triglyceride, Mean (SD) ([1]; Cohort E 1000 mg single dose, Day 7/Early termination, baseline mean 1.0275): 1.2210 mmol/L | Cholesterol, Mean (SD) ([1]; Cohort E 1000 mg single dose, Day 7/Early termination, baseline mean 4.1332): 3.7628 mmol/L | HDL-C, Mean (SD) ([1]; Cohort E 1000 mg single dose, Day 7/Early termination, baseline mean 413.3): 303.3 (61.5) mg/L | LDL-C, Mean (SD) ([1]; Cohort E 1000 mg single dose, Day 7/Early termination, baseline mean 986.7): 1003.3 mg/L | Triglyceride, Mean (SD) ([1]; Cohort E 1000 mg single dose, Follow up, baseline mean 1.0275): 0.7565 mmol/L | Cholesterol, Mean (SD) ([1]; Cohort E 1000 mg single dose, Follow up, baseline mean 4.1332): 3.7410 mmol/L | HDL-C, Mean (SD) ([1]; Cohort E 1000 mg single dose, Follow up, baseline mean 413.3): 343.3 (47.2) mg/L | LDL-C, Mean (SD) ([1]; Cohort E 1000 mg single dose, Follow up, baseline mean 986.7): 988.3 mg/L | Triglyceride, Mean (SD) ([1]; Cohort J 2000 mg single dose, Day 2, baseline mean 0.9975): 2.0737 mmol/L | Cholesterol, Mean (SD) ([1]; Cohort J 2000 mg single dose, Day 2, baseline mean 4.4608): 3.9952 mmol/L | HDL-C, Mean (SD) ([1]; Cohort J 2000 mg single dose, Day 2, baseline mean 543.3): 225.0 (76.6) mg/L | LDL-C, Mean (SD) ([1]; Cohort J 2000 mg single dose, Day 2, baseline mean 1051.7): 901.7 mg/L | Triglyceride, Mean (SD) ([1]; Cohort J 2000 mg single dose, Day 4, baseline mean 0.9975): 1.7668 mmol/L | Cholesterol, Mean (SD) ([1]; Cohort J 2000 mg single dose, Day 4, baseline mean 4.4608): 3.4133 mmol/L | HDL-C, Mean (SD) ([1]; Cohort J 2000 mg single dose, Day 4, baseline mean 543.3): 171.7 (55.6) mg/L | LDL-C, Mean (SD) ([1]; Cohort J 2000 mg single dose, Day 4, baseline mean 1051.7): 865.0 mg/L | Triglyceride, Mean (SD) ([1]; Cohort J 2000 mg single dose, Day 7/Early termination, baseline mean 0.9975): 0.7867 mmol/L | Cholesterol, Mean (SD) ([1]; Cohort J 2000 mg single dose, Day 7/Early termination, baseline mean 4.4608): 3.9437 mmol/L | HDL-C, Mean (SD) ([1]; Cohort J 2000 mg single dose, Day 7/Early termination, baseline mean 543.3): 253.3 mg/L | LDL-C, Mean (SD) ([1]; Cohort J 2000 mg single dose, Day 7/Early termination, baseline mean 1051.7): 1135.0 mg/L | Triglyceride, Mean (SD) ([1]; Cohort J 2000 mg single dose, Follow up, baseline mean 0.9975): 0.4255 mmol/L | Cholesterol, Mean (SD) ([1]; Cohort J 2000 mg single dose, Follow up, baseline mean 4.4608): 3.7112 mmol/L | HDL-C, Mean (SD) ([1]; Cohort J 2000 mg single dose, Follow up, baseline mean 543.3): 405.0 (45.9) mg/L | LDL-C, Mean (SD) ([1]; Cohort J 2000 mg single dose, Follow up, baseline mean 1051.7): 951.7 mg/L | antiviral activity in mice (SARS-CoV-2): dose-dependent antiviral activity
